According to patent US20170209445A1, “KINASE INHIBITORS” (Respivert Limited, priority 2014, published 2017):
pIC50: −log10 of the molar value.

Tested on: PBMCs
Experiment: LPS-induced IL-8 release in PBMC cells
Type: cell-based
Details: Homo sapiens, LPS-stimulated PBMCs, read-out: IC50 Values for Inhibition of Cytokine Release PBMCs IL-8
Procedure: Peripheral blood mononuclear cells (PBMCs) from healthy subjects are separated from whole blood using a density gradient (Lymphoprep, Axis-Shield Healthcare). The PBMCs are seeded in 96 well plates and treated with compounds at the desired concentration for 2 hours before addition of 1 ng/mL LPS (Escherichia Coli 0111:B4 from Sigma Aldrich) for 24 hours under normal tissue culture conditions (37° C., 5% CO2). The supernatant is harvested for determination of IL-8 and TNFα concentrations by sandwich ELISA (Duo-set, R&D systems) and read on the fluorescence microplate reader (Varioskan® Flash, ThermoFisher Scientific).

**Q.** COCCOCCOCCOc1cc(Nc2ncc3cc(-c4cc(C(=O)Nc5cc(C(C)(C)C)cc(NS(C)(=O)=O)c5OC)ccc4C)ccc3n2)cc(C(F)(F)F)c1 [14(s), N-(5-(tert-Butyl)-2-methoxy-3-(methylsulfonamido)phenyl)-3-(2-((3-(2-(2-(2-methoxyethoxy)ethoxy)ethoxy)-5-(trifluoromethyl)phenyl)amino)quinazolin-6-yl)-4-methylbenzamide] was tested. Which pIC50 did it give?
**A.** 7.45

**Q.** How did the pIC50 turn out when COc1cc(Nc2ncc3cc(-c4cc(C(=O)Nc5cc(C(C)(C)C)cc(NS(C)(=O)=O)c5OC)ccc4C)ccc3n2)ccc1C(=O)NCCC1(O)CCN(C)CC1 [14(aj), 4-((6-(5-((5-(tert-Butyl)-2-methoxy-3-(methylsulfonamido)phenyl)carbamoyl)-2-methylphenyl)quinazolin-2-yl)amino)-N-(2-(4-hydroxy-1-methylpiperidin-4-yl)ethyl)-2-methoxybenzamide] was run?
**A.** 8.03

**Q.** COc1c(NC(=O)c2ccc(C)c(-c3ccc4nc(Nc5cccc(OS(C)(=O)=O)c5)ncc4c3)c2)cc(C(C)(C)C)cc1NS(C)(=O)=O [14(a), 3-((6-(5-((5-(tert-Butyl)-2-methoxy-3-(methylsulfonamido)phenyl)carbamoyl)-2-methylphenyl)quinazolin-2-yl)amino)phenyl methanesulfonate] was tested. Which pIC50 did it give?
**A.** 7.51

**Q.** How did the pIC50 turn out when COc1cc(Nc2ncc3cc(-c4cc(C(=O)Nc5cc(C(C)(C)C)cc(NS(C)(=O)=O)c5OC)ccc4C)ccc3n2)ccc1C(=O)NCCCN1CCCOCC1 [14(ab), N-(3-(1,4-Oxazepan-4-yl)propyl)-4-((6-(5-((5-(tert-butyl)-2-methoxy-3-(methyl-sulfonamido)phenyl)carbamoyl)-2-methylphenyl)quinazolin-2-yl)amino)-2-methoxybenzamide] was run?
**A.** 8.27

**Q.** COc1c(NC(=O)c2ccc(C)c(-c3ccc4nc(Nc5ccc(S(C)(=N)=O)cc5)ncc4c3)c2)cc(C(C)(C)C)cc1NS(C)(=O)=O (stereo not drawn) [14(t), N-(5-(tert-Butyl)-2-methoxy-3-(methylsulfonamido)phenyl)-4-methyl-3-(2-((4-(S-methylsulfonimidoyl)phenyl)amino)quinazolin-6-yl)benzamide] was tested. Which pIC50 did it give?
**A.** 7.17

**Q.** How did the pIC50 turn out when COCCOCCNC(=O)c1ccc(Nc2ncc3cc(-c4cc(C(=O)Nc5cc(C(C)(C)C)cc(NS(C)(=O)=O)c5OC)ccc4C)ccc3n2)cc1OC [14(w), 4-((6-(5-((5-(tert-Butyl)-2-methoxy-3-(methylsulfonamido)phenyl)carbamoyl)-2-methylphenyl)quinazolin-2-yl)amino)-2-methoxy-N-(2-(2-methoxyethoxy)ethyl)benzamide] was run?
**A.** 8.08

**Q.** COc1c(NC(=O)c2ccc(C)c(-c3ccc4nc(Nc5cccc(N=S(C)(C)=O)c5)ncc4c3)c2)cc(C(C)(C)C)cc1NS(C)(=O)=O [14(q), N-(5-(tert-Butyl)-2-methoxy-3-(methylsulfonamido)phenyl)-3-(2-((3-((dimethyl(oxo)-I6-sulfanylidene)amino)phenyl)amino)quinazolin-6-yl)-4-methylbenzamide] was tested. Which pIC50 did it give?
**A.** 8.21

**Q.** COCCOCCOCCOc1cc(F)cc(Nc2ncc3cc(-c4cc(C(=O)Nc5cc(C(C)(C)C)cc(NS(C)(=O)=O)c5OC)ccc4C)ccc3n2)c1 [14(l), N-(5-(tert-Butyl)-2-methoxy-3-(methylsulfonamido)phenyl)-3-(2-((3-fluoro-5-(2-(2-(2-methoxyethoxy)ethoxy)ethoxy)phenyl)amino)quinazolin-6-yl)-4-methylbenzamide] was tested. Which pIC50 did it give?
**A.** 7.78

**Q.** With COc1cc(Nc2ncc3cc(-c4cc(C(=O)Nc5cc(C(C)(C)C)cc(NS(C)(=O)=O)c5OC)ccc4C)ccc3n2)cc(S(=O)(=O)N(C)CCN2CCOCC2)c1 [14(c), N-(5-(tert-Butyl)-2-methoxy-3-(methylsulfonamido)phenyl)-3-(2-((3-methoxy-5-(N-methyl-N-(2-morpholinoethyl)sulfamoyl)phenyl)amino)quinazolin-6-yl)-4-methylbenzamide] as the compound, how does the pIC50 read?
**A.** 7.73
